US8912169B2, “Beta-lactamase inhibitors” (VenatoRx Pharmaceuticals, Inc., priority 2012, dated 2014)
Where two headings read alike, the source gives them in different places.

How the values were obtained:
SHV-5 = molecular target: T1, SHV-5 (Klebsiella pneumoniae, UniProt P0A3M1); assay: β-lactamase enzyme inhibition, SHV-5; format: biochemical
T1 construct: made in house; host or cells: E. coli BL21(DE3)
Method in brief: (§1)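 Native untagged β-lactamases expressed in E. coli BL21(DE3) and purified, then pre-incubated with inhibitor 15 min at 37 °C. Hydrolysis was followed by absorbance: 100 μM nitrocefin at 486 nm for p99 AmpC and OXA-1; imipenem at 300 nm for KPC-2; cefotaxime at 260 nm for SHV-5. IC50 from initial-rate inhibition versus uninhibited controls.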

KPC-2 = molecular target: T2, KPC-2 (Klebsiella pneumoniae, UniProt Q9F663); assay: β-lactamase enzyme inhibition, KPC-2; format: biochemical; settings: substrate imipenem, 300 nm; read-out: Class A KPC-2 IC50
T2 construct: made in house; host or cells: E. coli BL21(DE3)
Method in brief: as §1

VIM-2 = molecular target: T3, VIM-2 (Escherichia coli, UniProt Q5U7L7); assay: β-lactamase enzyme inhibition, VIM-2; format: biochemical; settings: substrate Nitrocefin 100 μM, 486 nm; read-out: Class B VIM-2 IC50
T3 construct: made in house; host or cells: E. coli BL21(DE3)
Method in brief: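 Purified VIM-2 (Q sepharose, 50 mM Hepes pH 7.5, >90% purity) preincubated with inhibitor 15 min at 37° C, then nitrocefin added at 100 μM final. Hydrolysis followed at 486 nm for 10 min; IC50 from initial rates versus inhibitor-free control wells.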

p99 AmpC = molecular target: T4, p99 AmpC (Enterobacter cloacae, UniProt P05364); assay: β-lactamase enzyme inhibition, p99 AmpC; format: biochemical
T4 construct: made in house; host or cells: E. coli BL21(DE3)
Method in brief: as §1

OXA-1 = molecular target: T5, OXA-1 (Escherichia coli, UniProt P13661); assay: β-lactamase enzyme inhibition, OXA-1; format: biochemical; settings: substrate Nitrocefin 100 μM, 486 nm; read-out: Class D OXA-1 IC50
T5 construct: made in house; host or cells: E. coli BL21(DE3)
Method in brief: as §1

P. aerug. Ps296 VIM-2 = assay: broth microdilution MIC, P. aeruginosa VIM-2; format: cell-based; settings: for MIC of exemplary compounds in presence of fixed β-lactams, P. aerug. Ps296 VIM-2: Fixed Mero 4 μg/mL
Text: (§2) To determine the ability of test compounds to potentiate the inhibition of the growth of bacterial strains that produce beta-lactamase enzymes, classic cell based broth microdilution MIC assays were employed. Six bacteria strains producing beta-lactamase enzymes were used: E. coli expressing the Class A Extended Spectrum Beta-Lactamase (ESBL) CTX-M-15, E. cloacae expressing the Class C P99, K. pneumoniae expressing the Class A carbapenemase KPC-3, P. aeruginosa expressing the Class B carbapenemase VIM-2, K. pneumoniae expressing the class A carbapenemase KPC-2 and the class B carbapenemase VIM-4, and S. aureus producing the Class A penicillinase PC-1. The assay was conducted in Cation Adjusted Mueller Hinton Broth (CAMHB, BD #212322, BD Diagnostic Systems, Sparks, Md.). Bacteria strains were grown for 3-5 hours in CAMBH broth. Test compounds were added to a microtiter plate in 2-fold serial dilutions in CAMHB in a final concentration range of 32 μg/mL to 0.25 μg/ml. An overlay of CAMHB containing a Beta-lactam was added to the compounds at a final static concentration of 4 μg/ml. […] In addition to the titration of test compounds the MICs of a panel of control beta-lactams is also tested to ensure the strains are behaving consistently from test to test. Once the test compound and antibiotics are added the plates can be inoculated according to CLSI broth microdilution method. After inoculation the plates are incubated for 16-20 hours at 37° C. then the Minimal Inhibitory Concentration (MIC) of the test compound is determined visually.
Using the methodology described above in EXAMPLE III, exemplary compounds for Formula I or Formula Ia were evaluated for their ability to inhibit the growth of β-lactamase producing bacteria in the presence of a β-lactam antibiotic.
Representative results are shown in Table 4 where A represents an MIC of the fixed β-lactam antibiotic in the presence of >32 μg/mL of a β-lactamase inhibitor of exemplary compounds, B represents the MIC in the presence of between 8 and 32 μg/mL of a β-lactamase inhibitor of exemplary compounds, and C represents the MIC in the presence of ≦4 μg/mL of a β-lactamase inhibitor of exemplary compounds. NT=Not Tested.

E. coli ESBL4 CTX-M-15 = assay: broth microdilution MIC, E. coli CTX-M-15; format: cell-based; settings: Fixed CAZ 4 μg/mL
Text: as §2
(§3) Using the methodology described above in EXAMPLE III, exemplary compounds for Formula I or Formula Ia were evaluated for their ability to inhibit the growth of β-lactamase producing bacteria in the presence of a β-lactam antibiotic. […]

E. cl. 144200 p99 AmpC = assay: broth microdilution MIC, E. cloacae P99; format: cell-based; settings: Fixed CAZ 4 μg/mL
Text: as §2, §3

K.P. 156319 KPC-3 = assay: broth microdilution MIC, K. pneumoniae KPC-3; format: cell-based; settings: Fixed Mero 4 μg/mL
Text: as §2, §3

K.P. A-1797 KPC-2 VIM-4 = assay: broth microdilution MIC, K. pneumoniae KPC-2 and VIM-4; format: cell-based; settings: Fixed Mero 4 μg/mL
Text: as §2, §3

[1] = substrate Cefotaxime, 260 nm, read-out: Class A SHV-5 IC50
[2] = substrate Nitrocefin 100 μM, 486 nm, read-out: Class C AmpC IC50

Compound | IC50 (SHV-5) [nM] | IC50 (KPC-2) [nM] | IC50 (VIM-2) [nM] | IC50 (p99 AmpC) [nM] | IC50 (OXA-1) [nM] | MIC (P. aerug. Ps296 VIM-2; Pseudomonas aeruginosa, partner antibiotic alone, P. aeruginosa expressing VIM-2) [µg/mL] | IC50 (SHV-5; [1]) [nM] | IC50 (p99 AmpC; [2]) [nM] | MIC of exemplary compounds in presence of fixed β-lactams, E. coli ESBL4 CTX-M-15 (E. coli ESBL4 CTX-M-15) | MIC of exemplary compounds in presence of fixed β-lactams, E. cl. 144200 p99 AmpC (E. cl. 144200 p99 AmpC) | MIC of exemplary compounds in presence of fixed β-lactams, K.P. 156319 KPC-3 (K.P. 156319 KPC-3) | MIC of exemplary compounds in presence of fixed β-lactams, P. aerug. Ps296 VIM-2 (P. aerug. Ps296 VIM-2) | MIC of exemplary compounds in presence of fixed β-lactams, K.P. A-1797 KPC-2 VIM-4 (K.P. A-1797 KPC-2 VIM-4)
CCNCCN[C@H]1CC[C@H](CC(=O)N[C@H]2Cc3cccc(C(=O)O)c3OB2O)CC1 [Example 78, (R)-3-(2-(trans-4-(2-(ethylamino)ethylamino)cyclohexyl)acetamido)-2-hydroxy-3,4-dihydro-2H-benzo[e][1,2]oxaborinine-8-carboxylic acid] | < 100 | < 100 | < 100 | < 100 | < 100 | – | – | – | – | – | – | – | –
CN(C)CCN[C@H]1CC[C@H](CC(=O)N[C@H]2Cc3cccc(C(=O)O)c3OB2O)CC1 [Example 79, (R)-3-(2-(trans-4-(2-(dimethylamino)ethylamino)cyclohexyl)acetamido)-2-hydroxy-3,4-dihydro-2H-benzo[e][1,2]oxaborinine-8-carboxylic acid] | < 100 | < 100 | < 100 | < 100 | < 100 | – | – | – | – | – | – | – | –
C[C@@H](O)[C@H]1C(=O)N2C(C(=O)O)=C(S[C@@H]3CN[C@H](C(=O)N(C)C)C3)[C@H](C)[C@H]12 [Meropenem, reference compound] | – | – | – | – | – | 16 | – | – | – | – | – | – | –
(3R)-3-[[2-[(1S,3S,4S)-3,4-bis(aminomethyl)cyclohexyl]acetyl]amino]-2-hydroxy-3,4-dihydro-1,2-benzoxaborinine-8-carboxylic acid and (3R)-3-[[2-[(1R,3R,4R)-3,4-bis(aminomethyl)cyclohexyl]acetyl]amino]-2-hydroxy-3,4-dihydro-1,2-benzoxaborinine-8-carboxylic acid [Example 18] | – | < 100 | < 100 | – | < 100 | – | < 100 | < 100 | C (C represents the MIC in the presence of ≦4 μg/mL of a β-lactamase inhibitor of exemplary compounds) | C (C represents the MIC in the presence of ≦4 μg/mL of a β-lactamase inhibitor of exemplary compounds) | C (C represents the MIC in the presence of ≦4 μg/mL of a β-lactamase inhibitor of exemplary compounds) | C (C represents the MIC in the presence of ≦4 μg/mL of a β-lactamase inhibitor of exemplary compounds) | B (B represents the MIC in the presence of between 8 and 32 μg/mL of a β-lactamase inhibitor of exemplary compounds)
(3R)-3-[[(1S,3S,4S)-3,4-diaminocyclohexanecarbonyl]amino]-2-hydroxy-3,4-dihydro-1,2-benzoxaborinine-8-carboxylic acid and (3R)-3-[[(1R,3R,4R)-3,4-diaminocyclohexanecarbonyl]amino]-2-hydroxy-3,4-dihydro-1,2-benzoxaborinine-8-carboxylic acid [Example 20] | – | 100 to 1000 | < 100 | – | 100 to 1000 | – | 1000 to 10000 | < 100 | C (C represents the MIC in the presence of ≦4 μg/mL of a β-lactamase inhibitor of exemplary compounds) | C (C represents the MIC in the presence of ≦4 μg/mL of a β-lactamase inhibitor of exemplary compounds) | C (C represents the MIC in the presence of ≦4 μg/mL of a β-lactamase inhibitor of exemplary compounds) | C (C represents the MIC in the presence of ≦4 μg/mL of a β-lactamase inhibitor of exemplary compounds) | B (B represents the MIC in the presence of between 8 and 32 μg/mL of a β-lactamase inhibitor of exemplary compounds)
(3R)-3-[[(3S,4S)-3,4-diaminocyclopentanecarbonyl]amino]-2-hydroxy-3,4-dihydro-1,2-benzoxaborinine-8-carboxylic acid and (3R)-3-[[(3R,4R)-3,4-diaminocyclopentanecarbonyl]amino]-2-hydroxy-3,4-dihydro-1,2-benzoxaborinine-8-carboxylic acid [Example 19] | – | < 100 | < 100 | – | < 100 | – | 100 to 1000 | < 100 | C (C represents the MIC in the presence of ≦4 μg/mL of a β-lactamase inhibitor of exemplary compounds) | C (C represents the MIC in the presence of ≦4 μg/mL of a β-lactamase inhibitor of exemplary compounds) | C (C represents the MIC in the presence of ≦4 μg/mL of a β-lactamase inhibitor of exemplary compounds) | C (C represents the MIC in the presence of ≦4 μg/mL of a β-lactamase inhibitor of exemplary compounds) | C (C represents the MIC in the presence of ≦4 μg/mL of a β-lactamase inhibitor of exemplary compounds)
